Measured values reported in the NIST ThermoML archive (doi:10.1021/je0400052).

Assays:
[1] = 101.33 kPa, Liquid
[2] = refractive index (Na D-line) (dimensionless); conditions: 101.33 kPa, Liquid
[3] = xn = mol fraction of the nth substance listed; conditions: 101.3 kPa, Liquid
[4] = refractive index (Na D-line) (dimensionless); xn = mol fraction of the nth substance listed; conditions: 101.3 kPa, Liquid

Cc1ccccc1C [1,2-dimethylbenzene]
Conditions	mass density, [1] [kg/m3]	refractive index, [2]	viscosity, [1] [mPa·s]
303.15 K	870.8	1.5001	0.695
313.15 K	863.3	1.4981	0.621

CCOC=O [ethyl methanoate] + Cc1ccc(C)cc1
Conditions	mass density, [3] [kg/m3]	refractive index, [4]	viscosity, [3] [mPa·s]
303.15 K, x1 = 0.1658	857.7	1.4785	0.523
303.15 K, x1 = 0.2572	861.1	1.4746	0.503
303.15 K, x1 = 0.4068	868.2	1.4671	0.472
303.15 K, x1 = 0.5039	871.6	1.4532	0.452
303.15 K, x1 = 0.6037	878.8	1.451	0.434
303.15 K, x1 = 0.6916	883.4	1.4239	0.418
303.15 K, x1 = 0.7854	889.6	1.4121	0.403
303.15 K, x1 = 0.8588	896	1.3901	0.39
303.15 K, x1 = 0.9381	902.9	1.3711	0.375
313.15 K, x1 = 0.1658	849	1.4779	0.477
313.15 K, x1 = 0.2572	851.7	1.4732	0.451
313.15 K, x1 = 0.4068	858.8	1.4611	0.424
313.15 K, x1 = 0.5039	861.8	1.4499	0.407
313.15 K, x1 = 0.6037	868.8	1.4491	0.393
313.15 K, x1 = 0.6916	873.5	1.4201	0.38
313.15 K, x1 = 0.7854	877.8	1.4091	0.371
313.15 K, x1 = 0.8588	884.7	1.3891	0.36
313.15 K, x1 = 0.9381	891	1.3689	0.348

CCOC=O [ethyl methanoate] + Cc1ccccc1C
Conditions	mass density, [3] [kg/m3]	refractive index, [4]	viscosity, [3] [mPa·s]
303.15 K, x1 = 0.1467	872.7	1.4906	0.63
303.15 K, x1 = 0.2667	877.4	1.4873	0.586
303.15 K, x1 = 0.3779	880	1.4786	0.544
303.15 K, x1 = 0.4984	882.6	1.4721	0.502
303.15 K, x1 = 0.5936	886.9	1.4631	0.471
303.15 K, x1 = 0.694	891.2	1.4347	0.444
303.15 K, x1 = 0.7791	896.7	1.4072	0.42
303.15 K, x1 = 0.8563	901.2	1.3981	0.4
303.15 K, x1 = 0.9337	903.7	1.3729	0.378
313.15 K, x1 = 0.1467	864.6	1.4896	0.558
313.15 K, x1 = 0.2667	868.5	1.4819	0.521
313.15 K, x1 = 0.3779	871.9	1.4735	0.487
313.15 K, x1 = 0.4984	873.7	1.4671	0.452
313.15 K, x1 = 0.5936	876.9	1.4612	0.43
313.15 K, x1 = 0.694	881.6	1.4216	0.402
313.15 K, x1 = 0.7791	885.9	1.4061	0.382
313.15 K, x1 = 0.8563	889.6	1.3969	0.366
313.15 K, x1 = 0.9337	891.1	1.3701	0.359
